US10662204B2 (PFIZER INC., priority 2018, dated 2020)

Key:
[1] = molecular target: T1, GDP-loaded KRAS (1-169) G12C, C51S, C80L, C118S (Homo sapiens, UniProt P01116, C118S/C51S/C80L/G12C); experiment: Mass Spectrometry Reactivity Assay (MSRA): covalent adduct of compound and KRAS G12C, Percent Modification; format: binding; conditions: for MSRA (% modification) 5.0 μM 0.25 hr / MSRA (% modification) 5.0 μM 0.017 hr: 5.0 μM compound
T1 construct: GDP-loaded KRAS (1-169) G12C, C51S, C80L, C118S
Procedure, shortened: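 GDP-loaded KRAS(1-169) G12C/C51S/C80L/C118S at 5 μM in 25 mM Hepes pH 7.5, 200 mM NaCl, 5% glycerol incubated at RT with compound (typically 5 or 10 μM final, 1% DMSO). Quenched in formic acid at 1-60 min; intact-protein LC-TOF MS gives % modification = modified/(modified+unmodified).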

[2] = molecular target: KRAS G12C (Homo sapiens, UniProt P01116, G12C); experiment: Cell Activity Assay: accumulation of GDP-bound KRAS G12C in MIAPaCa-2 cells (Raf-1 RBD capture, MSD readout); format: cell-based; parameters: endogenous in cells; host or cells: MIAPaCa-2; conditions: 6 hours, assay limit is 30.00
Procedure, shortened: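 MIAPaCa-2 cells exposed 6 h at 37 °C to 3-fold compound dilutions (0.3% DMSO final), then lysed. Active GTP-KRAS captured on Raf-1 RBD-coated plates, detected with anti-pan-Ras and SULFO-TAG secondary by MSD electrochemiluminescence. Signal normalized to DMSO and maximum inhibition; IC50 from 4-parameter fit.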

C=CC(=O)N1CCN(c2nc(O[C@@H]3CCOC3)nc3c(Oc4c(Cl)c(F)cc5[nH]ncc45)nccc23)CC1 [Example 02J, 1-(4-{8-[(5-chloro-6-fluoro-1H-indazol-4-yl)oxy]-2-[(3R)-tetrahydrofuran-3-yloxy]pyrido[3,4-d]pyrimidin-4-yl}piperazin-1-yl)prop-2-en-1-one]
MSRA (% modification) 5.0 μM 0.25 hr [1]: 26% | IC50 [2]: 0.62 µM

C=CC(=O)N1CCN(c2nc(OC[C@@H]3CCOC3)nc3c(Oc4c(Cl)c(F)cc5[nH]ncc45)nccc23)CC1 [Example 05H, 1-(4-{8-[(5-chloro-6-fluoro-1H-indazol-4-yl)oxy]-2-[(3R)-tetrahydrofuran-3-ylmethoxy]pyrido[3,4-d]pyrimidin-4-yl}piperazin-1-yl)prop-2-en-1-one]
MSRA (% modification) 5.0 μM 0.25 hr [1]: 54% | MSRA (% modification) 10 μM 0.25 hr ([1]; 10 μM compound): 68% | IC50 [2]: 0.414 µM

C=CC(=O)N1CCN(c2nc(Oc3cccc4c3CCN(C)C4)nc3c(Oc4c(Cl)ccc5[nH]ncc45)nccc23)CC1 [Example 48I, 1-(4-{8-[(5-chloro-1H-indazol-4-yl)oxy]-2-[(2-methyl-1,2,3,4-tetrahydro-isoquinolin-5-yl)oxy]pyrido [3,4-d]pyrimidin-4-yl}piperazin-1-yl)prop-2-en-1-one]
MSRA (% modification) 5.0 μM 0.017 hr [1]: 67% | IC50 [2]: 0.006 µM

C=CC(=O)N1CCN(c2nc(OC[C@H]3CCN(C)C3)nc3c(Oc4c(Cl)c(F)cc5[nH]ncc45)nccc23)CC1 [Example 18E, 1-[4-(8-[(5-chloro-6-fluoro-1H-indazol-4-yl)oxy]-2-{[(3S)-1-methylpyrrolidin-3-yl]methoxy}pyrido[3,4-d]pyrimidin-4-yl)piperazin-1-yl]prop-2-en-1-one]
MSRA (% modification) 10 μM 0.25 hr ([1]; 10 μM compound): 80% | IC50 [2]: 0.262 µM

C=CC(=O)N1CCN(c2nc(Oc3cccc4c3CCN(CC)C4)nc3c(Oc4c(Cl)c(F)cc5[nH]ncc45)nccc23)CC1 [Example 17I, 1-(4-{8-[(5-chloro-6-fluoro-1H-indazol-4-yl)oxy]-2-[(2-ethyl-1,2,3,4-tetrahydro-isoquinolin-5-yl)oxy]pyrido [3,4-d]pyrimidin-4-yl}piperazin-1-yl)prop-2-en-1-one]
MSRA (% modification) 5.0 μM 0.017 hr [1]: 82% | IC50 [2]: 0.005 µM

C=CC(=O)N1CCN(c2nc(Oc3cnn(C)c3)nc3c(Oc4c(Cl)c(F)cc5[nH]ncc45)nccc23)CC1 [Example 09I, 1-(4-{8-[(5-chloro-6-fluoro-1H-indazol-4-yl)oxy]-2-[(1-methyl-1H-pyrazol-4-yl)oxy]pyrido [3,4-d]pyrimidin-4-yl}piperazin-1-yl)prop-2-en-1-one]
MSRA (% modification) 5.0 μM 0.25 hr [1]: 44% | IC50 [2]: 0.398 µM

C=CC(=O)N1CCN(c2nc(Oc3cccnc3C(F)(F)F)nc3c(Oc4c(Cl)c(F)cc5[nH]ncc45)nccc23)CC1 [Example 07I, 1-[4-(8-[(5-chloro-6-fluoro-1H-indazol-4-yl)oxy]-2-{[2-(trifluoro-methyl)pyridin-3-yl]oxy}pyrido [3,4-s]pyrimidin-4-yl)piperazin-1-yl]prop-2-en-1-one]
MSRA (% modification) 5.0 μM 0.25 hr [1]: 46% | IC50 [2]: 0.331 µM

C=CC(=O)N1CCN(c2nc(OC[C@@H]3CCCN3C)nc3c(Oc4c(Cl)ccc5[nH]ncc45)cccc23)CC1 [Example 02L, 1-[4-(8-[(5-chloro-1H-indazol-4-yl)oxy]-2-{[(2S)-1-methylpyrrolidin-2-yl]methoxy}quinazolin-4-yl)piperazin-1-yl]prop-2-en-1-one]
MSRA (% modification) 5.0 μM 0.25 hr [1]: 31% | IC50 [2]: 0.146 µM

C=CC(=O)N1CCN(c2nc(OC[C@@H]3CCCN3C)nc3c(Oc4c(Cl)c(C)cc5[nH]ncc45)nccc23)CC1 [Example 09H, 1-[4-(8-[(5-chloro-6-methyl-1H-indazol-4-yl)oxy]-2-{[(2S)-1-methylpyrrolidin-2-yl]methoxy}pyrido[3,4-d]pyrimidin-4-yl)piperazin-1-yl]prop-2-en-1-one]
MSRA (% modification) 5.0 μM 0.25 hr [1]: 78% | MSRA (% modification) 10 μM 0.25 hr ([1]; 10 μM compound): 81% | MSRA (% modification) 10 μM 0.50 hr ([1]; 10 μM compound, 0.50 hr): 83% | IC50 [2]: 0.239 µM
